# Data published in publication PMC3758386 (Psychopharmacology, 2013).
# Legend:
# Adenosine A1 = biological target: T1, Adenosine A1 (Homo sapiens, UniProt P30542); assay: receptor screen, Adenosine A1; type: binding; conditions: [3H]DPCPX, inactive = displacement at 10,000 nM less than 75%
# T1 sequence (P30542 1-326): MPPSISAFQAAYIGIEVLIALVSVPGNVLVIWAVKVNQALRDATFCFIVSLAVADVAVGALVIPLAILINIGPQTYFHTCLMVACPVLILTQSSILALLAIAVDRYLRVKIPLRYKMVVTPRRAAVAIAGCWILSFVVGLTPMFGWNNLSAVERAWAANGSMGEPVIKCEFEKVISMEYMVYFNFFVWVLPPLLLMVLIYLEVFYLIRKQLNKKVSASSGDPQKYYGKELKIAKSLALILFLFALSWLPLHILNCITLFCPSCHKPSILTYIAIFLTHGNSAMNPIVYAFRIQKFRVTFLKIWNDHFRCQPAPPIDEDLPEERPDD
# [1] = test system: Glutamate, NMDA, phencyclidine; assay: receptor screen, Glutamate, NMDA, phencyclidine; type: binding, Rat; conditions: [3H]TCP, inactive = displacement at 10,000 nM less than 75%
# Muscarinic M2 = biological target: T2, Muscarinic M2 (Homo sapiens, UniProt P08172); assay: receptor screen, Muscarinic M2; type: binding; conditions: read-out: Ki Muscarinic M2, [3H]N-methylscopolamine
# T2 sequence (P08172 1-466): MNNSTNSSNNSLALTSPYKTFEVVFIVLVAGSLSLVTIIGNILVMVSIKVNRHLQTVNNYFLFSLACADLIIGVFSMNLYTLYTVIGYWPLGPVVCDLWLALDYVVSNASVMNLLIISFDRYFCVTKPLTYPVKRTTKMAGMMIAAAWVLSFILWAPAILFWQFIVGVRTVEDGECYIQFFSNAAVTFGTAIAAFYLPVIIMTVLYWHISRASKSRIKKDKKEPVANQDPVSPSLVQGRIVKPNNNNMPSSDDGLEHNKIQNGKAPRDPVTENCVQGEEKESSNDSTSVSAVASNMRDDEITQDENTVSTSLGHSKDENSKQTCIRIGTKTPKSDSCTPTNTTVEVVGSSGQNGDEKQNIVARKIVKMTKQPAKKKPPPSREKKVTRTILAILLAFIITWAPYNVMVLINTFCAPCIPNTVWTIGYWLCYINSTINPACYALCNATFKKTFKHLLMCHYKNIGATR
# Muscarinic M3 = Muscarinic M3 (Homo sapiens, UniProt P20309); assay: receptor screen, Muscarinic M3; type: binding; conditions: read-out: Ki Muscarinic M3, [3H]N-methylscopolamine
# Muscarinic M3, sequence (P20309 whole entry): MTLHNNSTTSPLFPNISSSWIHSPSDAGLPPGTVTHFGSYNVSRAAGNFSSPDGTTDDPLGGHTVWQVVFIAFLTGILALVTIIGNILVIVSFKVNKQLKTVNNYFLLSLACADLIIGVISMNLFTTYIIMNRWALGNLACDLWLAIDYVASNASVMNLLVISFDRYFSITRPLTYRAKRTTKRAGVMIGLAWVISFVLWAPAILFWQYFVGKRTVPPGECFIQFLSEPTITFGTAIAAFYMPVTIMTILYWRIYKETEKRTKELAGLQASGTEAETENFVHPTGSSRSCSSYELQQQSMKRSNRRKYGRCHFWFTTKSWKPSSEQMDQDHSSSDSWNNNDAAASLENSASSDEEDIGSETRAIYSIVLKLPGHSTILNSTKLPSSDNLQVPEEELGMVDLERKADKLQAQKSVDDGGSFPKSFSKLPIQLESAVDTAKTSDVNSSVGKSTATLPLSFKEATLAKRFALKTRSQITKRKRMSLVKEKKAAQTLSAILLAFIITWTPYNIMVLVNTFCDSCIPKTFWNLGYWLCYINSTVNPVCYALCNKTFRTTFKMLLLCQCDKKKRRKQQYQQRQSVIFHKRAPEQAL
# K+ Channel hERG = K+ Channel hERG (Homo sapiens, UniProt Q12809); assay: receptor screen, K+ Channel hERG; type: binding; conditions: read-out: Ki K+ Channel hERG; receptor screen, [3H]Astemizole
# K+ Channel hERG, sequence (Q12809 whole entry): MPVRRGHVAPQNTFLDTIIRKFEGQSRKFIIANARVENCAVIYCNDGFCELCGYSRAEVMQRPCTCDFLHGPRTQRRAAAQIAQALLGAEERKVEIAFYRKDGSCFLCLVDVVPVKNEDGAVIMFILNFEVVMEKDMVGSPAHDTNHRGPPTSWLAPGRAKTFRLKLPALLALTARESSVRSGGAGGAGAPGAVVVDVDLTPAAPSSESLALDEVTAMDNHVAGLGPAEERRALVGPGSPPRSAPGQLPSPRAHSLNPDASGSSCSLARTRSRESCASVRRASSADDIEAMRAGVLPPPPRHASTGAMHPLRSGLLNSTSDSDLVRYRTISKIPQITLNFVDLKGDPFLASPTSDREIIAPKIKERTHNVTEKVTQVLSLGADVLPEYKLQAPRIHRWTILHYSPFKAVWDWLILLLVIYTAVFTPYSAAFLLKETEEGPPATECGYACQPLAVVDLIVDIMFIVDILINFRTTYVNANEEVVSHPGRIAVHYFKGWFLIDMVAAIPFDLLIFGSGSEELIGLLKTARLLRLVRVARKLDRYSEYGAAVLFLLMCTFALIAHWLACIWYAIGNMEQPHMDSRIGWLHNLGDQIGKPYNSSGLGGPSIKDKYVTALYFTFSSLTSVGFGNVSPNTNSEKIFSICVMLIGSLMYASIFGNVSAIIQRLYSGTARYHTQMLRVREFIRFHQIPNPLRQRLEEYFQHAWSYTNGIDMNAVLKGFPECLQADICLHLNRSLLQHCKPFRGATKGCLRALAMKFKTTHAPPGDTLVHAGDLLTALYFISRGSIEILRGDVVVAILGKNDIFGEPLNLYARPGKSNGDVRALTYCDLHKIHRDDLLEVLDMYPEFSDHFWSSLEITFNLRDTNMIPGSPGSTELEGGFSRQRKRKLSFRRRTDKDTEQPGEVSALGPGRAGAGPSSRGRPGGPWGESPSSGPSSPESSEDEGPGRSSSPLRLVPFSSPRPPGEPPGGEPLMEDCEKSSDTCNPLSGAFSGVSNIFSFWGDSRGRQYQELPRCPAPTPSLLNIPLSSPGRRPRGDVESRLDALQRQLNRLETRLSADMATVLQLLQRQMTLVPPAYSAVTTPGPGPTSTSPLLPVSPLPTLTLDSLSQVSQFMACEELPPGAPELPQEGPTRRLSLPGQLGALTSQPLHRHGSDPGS
# rats = assay: Place conditioning; type: in vivo; conditions: rat, i.p. (1 to 10 mg/kg), injected immediately before conditioning sessions
# DAT = conditions: read-out: Ki DAT; ref Newman and Katz (2009); cited from earlier work
# SERT = conditions: read-out: Ki SERT; ref Woolverton et al., Psychopharmacology (2001); cited from earlier work
# NET = conditions: read-out: Ki NET; ref Woolverton et al., Psychopharmacology (2001); cited from earlier work
smiles,measurement,setting,value
"CN1C2CCC1CC(OC(c1ccccc1)c1ccc(Cl)cc1)C2 (stereo not drawn) [4-Cl-BZT, 4′-chloro-3α-(diphenylmethoxy)tropane]",Ki Adenosine A1,Adenosine A1,inactive
same,"Ki Glutamate, NMDA, phencyclidine",[1],inactive
same,Ki,Muscarinic M2,5.88 ± 0.63 nM
same,Ki,Muscarinic M3,0.384 ± 0.043 nM
same,Ki,K+ Channel hERG,804 ± 300 nM
same,place conditioning (time allocated to compound-paired compartment),rats,did not increase the time allocated to the compound-paired compartment
same,Ki,DAT,10.5 ± 1.21 nM
same,Ki,SERT,5120 ± 395 nM
same,Ki,NET,1470 ± 180 nM
